Data published in US20100210568A1, “T[…] HORMONE FOR […] APPLICATIONS” (priority 2007, published 2010).

What was measured:
[1] = system: MRC-5 cells; assay: Cytotoxicity testing in MRC-5 cells (CellTiter 96); format: cell-based, human; conditions: 6 days incubation
Protocol: (§1) Cells were split twic a week 1:2.
(§2) For cytotxicity testing, MRC-5 cells were seeded at 2,500 cells/well in 96 well plates using growth medium. […] The following day, peptide was added and tested in duplicates. After a 6 days incubation period, cell viability was measured using CellTiter 96 Solution (Promega). Plates were incubated for additional 4 hours at 37° C.

[2] = system: HCMV strain AD169; assay: HCMV plaque reduction assay in MRC-5 cells; format: cell-based
Source text: as §1
Ganciclovir was used as positive control.

[3] = system: Human Peripheral Blood Mononuclear Cells (PBMC), B cell proliferation; assay: B cell proliferation assay (SAC plus Interleukin-2, 3H-thymidine); format: cell-based; conditions: peptide 10 micrograms per ml; 3 days plus 12 hours 3H-thymidine
[4] = system: Interleukin-2 (IL-2), spleen cells; assay: Th1/Th2 cytokine profiling assay: IL-2; format: cell-based, Balb/c mice; conditions: peptide 10 micrograms per ml; Ovalbumin restimulation 10 micrograms/ml; 72 hours
[5] = Cytotoxicity testing in MRC-5 cells (CellTiter 96); format: cell-based, human; conditions: human, MRC-5 cells (embryonal lung fibroblasts), 6 days incubation, read-out: % Cell Viability
Protocol: as §1, §2

[6] = Cytotoxicity (dye uptake cell viability) in the HBV assay; format: cell-based; conditions: human, HepG2-2.2.15 cells, % cell control
[7] = Cytotoxicity (MTS cell viability) in the HIV-1 assay; conditions: human, CEM-SS cells
[8] = system: Pseudomonas aeruginosa; assay: Pseudomonas aeruginosa assay; format: cell-based; conditions: peptide 10 micrograms per ml, visual reading of growth
[9] = system: Human Peripheral Blood Mononuclear Cells (PBMC), T cell proliferation; assay: T cell proliferation assay (PHA, 3H-thymidine); format: cell-based; conditions: peptide 10 micrograms per ml; 3 days plus 12 hours 3H-thymidine
[10] = system: Interferon-γ (IFN-γ), spleen cells; assay: Th1/Th2 cytokine profiling assay: IFN-γ; format: cell-based, Balb/c mice; conditions: peptide 10 micrograms per ml; Ovalbumin restimulation 10 micrograms/ml; 72 hours
[11] = system: hepatitis B virus (HBV) ayw strain in HepG2-2.2.15 cells; assay: HBV experimental assay system (secreted HBV DNA, TaqMan PCR); format: cell-based; conditions: test peptide 10 micrograms per ml; six days; HBV DNA in supernatant
[12] = system: MRSA; conditions: peptide 10 micrograms per ml, visual reading of growth
[13] = system: Tumor Necrosis Factor-α (TNF-α), spleen cells; assay: Th1/Th2 cytokine profiling assay: TNF-α; format: cell-based, Balb/c mice; conditions: peptide 10 micrograms per ml; Ovalbumin restimulation 10 micrograms/ml; 72 hours
[14] = system: A549 cells; assay: Cell cycle assay (propidium iodide, FACS); format: cell-based, human; conditions: peptide 10 micrograms per ml, 24 hours
[15] = system: A549 cells; assay: Apoptosis induction assay (Annexin-5); format: cell-based, human; conditions: peptide 10 micrograms per ml, 24 hours
[16] = system: Primary Human endothelial cells (HUVEC); assay: Endothelial cell migration assay; format: cell-based; conditions: peptide 10 micrograms per ml; 22 hours
[17] = system: Streptococcus pneumoniae; assay: Streptococcus pneumoniae assay; format: cell-based; conditions: peptide 10 micrograms per ml, visual reading of growth
[18] = system: HUVEC; assay: Endothelial tube formation assay; format: cell-based, human; conditions: peptide 10 micrograms per ml; 20 hours
Source text: Positive control was vehicle only. […] Raw data were expressed as average tubule lenghs in pixels±standard deviation.

[19] = system: cyclic AMP generation in human peripheral blood mononuclear cells (PBMC); assay: cAMP induction assay (ELISA); format: cell-based; conditions: 10 min at 37° C.; forskolin 50 micrograms per ml as positive control
Protocol: The cAMP kit was used as an immunoassay for the quantitative determination of cyclic AMP generation in human peripheral blood mononuclear cells (PBMC). PBMC were placed in 96-well microtitier plates (50 microliters of cells at 4×10^6/ml) and 50 microliters of medium alone (background control), forskolin (cAMP positive control; 50 micrograms per ml), or test peptide were added. Plates were mixed and incubated for 10 min at 37° C. and the cells were lysed by the addition of 50 microliters of 3% perchloric acid. NaOH was added to neutralize the samples. Plates were centrifuged for 15 min at 2500 rpm and the supernatants removed. The supernatants (diluted 2-fold in assay buffer) were then assayed for the levels of cAMP by ELISA.

[20] = system: HIV-1IIIB; assay: HIV-1 antiviral assay (CPE reduction, MTS) in CEM-SS cells; format: cell-based; conditions: for % CPE reduction in HIV-1 infected CEM-SS cells: test peptide 10 micrograms per ml, 6 days post-infection, MTS; for antiviral activity of positive control compounds (in words): HIV-1 assay validity
[21] = system: Interleukin-5 (IL-5), spleen cells; assay: Th1/Th2 cytokine profiling assay: IL-5; format: cell-based, Balb/c mice; conditions: peptide 10 micrograms per ml; Ovalbumin restimulation 10 micrograms/ml; 72 hours
[22] = system: TNF alpha production in PBMC-derived macrophages; assay: TNF alpha production assay (LPS-stimulated macrophages, ELISA); format: cell-based, human; conditions: peptide 10 micrograms per ml, 30 min; lipopolysaccharide 200 ng/ml; overnight
Source text: Not stimulated macrophages served as negative background control.

[23] = system: RAW 264.7 cells; assay: Phagocytosis assay (Fluorescein-labeled Escherichia coli, flow cytometry); format: cell-based, mouse; conditions: peptide 10 micrograms per ml; 30 min preincubation, 60 min ingestion
Protocol: RAW 264.7 (Mouse leukaemic monocyte macrophage cell line) cells were obtained from ATCC and grown in RPMI 1640 medium containing 10% FBS. […] After the cells were incubated for additional 60 min at 37° C. and allowed to ingest the Fluorescein-labeled Escherichia coli bacteria, cells were fixed with 1% paraformaldehyde. The samples were then analyzed by flow cytometry to determine the amount of phagocytosis as a function of brightness (the greater the phagocytic activity, the more fluorescence in the macrophage population). Data are reported as % positive and the mean fluorescence intensity (MFI) of positively stained cells.

[24] = system: A549 cells; assay: Apoptosis prevention assay (C2 ceramide, Annexin-5); format: cell-based, human; conditions: peptide 10 micrograms per ml; 30 min pretreatment, then C2 ceramide
[25] = system: Interleukin-4 (IL-4), spleen cells; assay: Th1/Th2 cytokine profiling assay: IL-4; format: cell-based, Balb/c mice; conditions: peptide 10 micrograms per ml; Ovalbumin restimulation 10 micrograms/ml; 72 hours
[26] = system: CEM-SS cells; assay: Cytotoxicity (MTS cell viability) in the HIV-1 assay; conditions: test peptide 10 micrograms per ml, MTS
[27] = system: HepG2-2.2.15 cells; assay: Cytotoxicity (dye uptake cell viability) in the HBV assay; format: cell-based; conditions: % cell control

For `Nc1nc(O)c2ncn(COC(CO)CO)c2n1` [Ganciclovir, reference compound], the “% Cell viability” value [1] was 100% and the “antiviral activity of positive control compound (in words)” value ([2]; HCMV assay validity) was “expected levels of antiviral activity”.
With `NC(=O)[C@@H]1CCCN1C(=O)[C@H](Cc1cnc[nH]1)NC(=O)[C@@H]1CCC(=O)N1` [TRH, Pyr-His-Pro-NH2] the “% of SAC/IL2 induced control” value [3] was 106.0%, the “IL-2 spleen cells (% of control)” value [4] was 0.0 % of control and the viability at 144 h [5] was 100%. The viability at 144 h, 10 micrograms per ml [6] was 87.4%, the viability at 10 micrograms per ml [7] was 94.6% and the “% inhibition” value [8] was 0.0%. The “% plaque reduction” value ([2]; peptide 10 micrograms per ml, 7-10 days, MRC-5 cells) was 0.0%, the “% of PHA induced Control” value [9] was 98.6% and the “IFNγ spleen cells; TH1 response (% of control)” value [10] was 102.0 % of control. The “% inhibition of HBV replication in HEP G2 cells” value [11] was 3.3%, the “% inhibition” value [12] was 0.0% and the “TNF-a spleen cells; TH1 response (% of control)” value [13] was 110.7 % of control. The “Cell cycle analysis G0/G1” value [14] was 58.1, the “Cell cycle analysis G2/M” value [14] was 10.7 and the “Cell cycle analysis S” value [14] was 31.3. For the same compound, the “% of induction” value [15] was 0.7%, the “% inhibition of migration” value [16] was −12% and the “% inhibition” value [17] was 0.0%. For the same compound, the “% inhibition of tube formation” value [18] was 7%, the “% of Forskolin (positive control) induced cAMP formation” value [19] was 0.0% and the “% CPE reduction in HIV-1 infected CEM-SS cells” value [20] was 0.0%. The “IL-5 spleen cells; TH2 response (% of control)” value [21] was 67.5 % of control, the “% of LPS induction” value [22] was 106.7% and the “% of control phagocytosis” value [23] was 131.4%. The “% prevention of ceramide induced apoptosis” value [24] was 17.2% and the “IL-4 spleen cells; TH2 response (% of control)” value [25] was 106.2 % of control.
With `Cc1cn([C@H]2C[C@H](N=[N+]=[N-])[C@@H](CO)O2)c(=O)[nH]c1=O` [AZT] the “% Cell viability” value [26] was 97%, the “antiviral activity of positive control compounds (in words)” value [20] was “expected levels of antiviral activity” and the “% CPE reduction in HIV-1 infected CEM-SS cells” value [20] was 99%.
With `Nc1ccn([C@@H]2CS[C@H](CO)O2)c(=O)n1` [Compound 3TC, Lamivudine, reference compound] the “% Cell viability” value [27] was 95.8%.
With `CC(C)(C)NC(=O)[C@@H]1CN(Cc2cccnc2)CCN1C[C@@H](O)C[C@@H](Cc1ccccc1)C(=O)N[C@H]1c2ccccc2C[C@H]1O` [Indinavir] the “% Cell viability” value [26] was 93% and the “antiviral activity of positive control compounds (in words)” value [20] was “expected levels of antiviral activity”.
